Where “and” joins values, the source holds several entries; their conditions need not be identical. Equal values may be shown once.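 Step 1: Grow cells in 96-well plates. Step 2: Expose to compound for 48 hours at 5 concentrations. Step 3: Interpolate endpoints linearly; if unreached, use highest concentration. Here, GI50 denotes the concentration required for 50% inhibition of growth. TGI denotes the concentration required for complete inhibition of growth.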

What all share (test): NCI tumour cell line growth inhibition, 48 h
Experiment [1] deals with UACC-62 melanoma.
Experiment [2] deals with A498 renal.
Experiment [3] relates to HS 578T breast.
Experiment [4] deals with HOP-62 NSCLC.
The test system of experiment [5] is SF-539 CNS.
The subject of experiment [6] is T-47D breast.
In experiment [7] the test system is IGROV1 ovarian.
Experiment [8] relates to OVCAR-5 ovarian.
The test system of experiment [9] is MDA-MB-231 breast.
The test system of experiment [10] is EKVX NSCLC.

Regarding `O=C(CI)NC1Oc2ccccc2-c2oc(=O)c(-c3ccccc3)cc21` (centres undefined), the GI50 in experiment [1] was 1.73 µM; in [2], 1.85 µM; in experiment [3], 2.4 µM; in experiment [4] it was 1.87 µM; in [5], 1.73 µM; in [6], 1.79 µM. For the same compound, the TGI turned out to be 3.25 µM in experiment [1]; 3.62 µM in experiment [2]; 7.28 µM in experiment [3]; 3.81 µM in [4]; 3.13 µM in [5]; 4.44 µM in experiment [6].
In the case of `N#C/C(=C1C=C/C(=N/O)C(Br)=C/1)c1ccccc1`, the GI50 in experiment [1] was 2.97 µM; in [2], 2.57 µM; in experiment [3], 2.52 µM; in experiment [4], 2.25 µM; in [5] it was 1.09 µM; in [6], 2.19 µM. In addition, the GI50 in experiment [7] was 2.16 µM; in experiment [8] it was 2.6 µM; in experiment [9], 2.27 µM. For the same compound, the TGI stood at 16 µM in [1]; 16.7 µM in experiment [2]; 8.09 µM in [3]; 13 µM in [4]; 2.75 µM in experiment [5]; 20.6 µM in experiment [6]. The figures for the TGI in [7], in experiment [8] and in experiment [9] were 12.2 µM, 6.8 µM and 6.73 µM, respectively.
`CC[CH2][Pb]([CH2]CC)([CH2]CC)[O]C(=O)C(F)(F)F`: the GI50 in experiment [1] was 0.116 µM; in [2] it was 0.0579 µM; in [3], 0.0947 µM; in experiment [4] it was 0.176 µM; in experiment [5], 0.156 µM; in experiment [7] it was 0.177 µM. The GI50 is 0.18 µM in experiment [8] and 0.142 µM in experiment [9]. In addition, the TGI was 0.3 µM in experiment [1]; 0.245 µM in experiment [2]; 0.759 µM in experiment [3]; 0.404 µM in experiment [4]; 0.424 µM in [5]; 0.627 µM in experiment [7]. For the same compound, the TGI is 0.636 µM in [8] and 0.44 µM in experiment [9].
With `COc1cccc(-c2cc(=O)c3cc(N(C)C)ccc3[nH]2)c1`, the GI50 in experiment [1] was 0.0163 µM and 0.00363 µM; in experiment [3], 0.0221 µM and 0.00461 µM; in experiment [5] it was 0.0106 µM and 0.00332 µM; in experiment [7] it was 0.0892 µM and 0.0423 µM and 0.0174 µM; in [9], 0.0107 µM. In addition, the TGI was > 100 µM in experiment [1]; > 100 µM in experiment [4]; 0.0351 µM and 0.022 µM and 0.0128 µM in experiment [5]; > 100 µM in experiment [7]; > 100 µM in experiment [8].
With `CCOC(=O)/C=C(/C(=O)OCC)n1cc(Cl)c(=O)n(CC(=O)OCC)c1=O`, the GI50 is 18.6 µM in [1]; 30.8 µM in experiment [4]; 23.4 µM in [10]; 16.9 µM in experiment [5]; 1.31 µM in [6]; 17.8 µM in experiment [7]. Further, the GI50 in experiment [8] was 36.6 µM; in experiment [9], 20.6 µM. For the same compound, the TGI is 8.88 µM and 33.6 µM in [1]; 34.6 µM in [2]; 25 µM and 91.3 µM in [4]; 10.3 µM and 53.1 µM in experiment [10]; 9.69 µM and 32.7 µM in [5]; 18.9 µM and 4.28 µM in experiment [6]. Besides, the TGI in [7] is 9.25 µM and 37.1 µM; in experiment [9] it was 10.7 µM and 36.8 µM.
Take `CCNCCNc1cc(-c2ccc(C(=O)OC)cc2)c(C#N)c2nc3ccccc3n12`: the GI50 in experiment [1] is 2.26 µM; in [2], 1.99 µM; in experiment [3], 2.42 µM; in [4] it was 2.48 µM; in experiment [10], 4.07 µM; in experiment [5], 1.74 µM. Besides, the GI50 is 2.16 µM in experiment [6], 2.38 µM in [7] and 3.08 µM in experiment [8]. Also, the TGI in experiment [1] is 4.74 µM; in experiment [2] it was 5.13 µM; in experiment [3], 7.48 µM; in [4], 9.46 µM; in experiment [10] it was > 100 µM; in experiment [5], 3.33 µM. The TGI was 5.31 µM in experiment [6], > 100 µM in experiment [7] and > 100 µM in experiment [8].
On to `Cc1ccc2c(c1)C(=O)/C(=C/c1ncc([N+](=O)[O-])n1C)O2`, for which the GI50 is 1.38 µM in experiment [1]; 1.99 µM in experiment [2]; 1.94 µM in experiment [3]; 5.79 µM in [4]; 2.26 µM in experiment [5]; 20.4 µM in experiment [6]. Also, the GI50 in experiment [7] is 1.96 µM; in [8], 2.7 µM; in experiment [9], 1.56 µM. Besides, the TGI is 3.84 µM in experiment [1]; 6.63 µM in [2]; > 23.2 µM in experiment [3]; 16.9 µM in experiment [4]; 6.19 µM in experiment [5]; 76.5 µM in experiment [6]. Besides, the TGI in experiment [7] is > 23.7 µM; in [8] it was > 27 µM; in experiment [9] it was 6.92 µM.
For `Cc1ccc(-c2c3c([nH]c(=O)c2C#N)-c2cc(F)ccc2OC3)cc1`, the GI50 was 61.2 µM in [1]; > 100 µM in experiment [2]; 95.5 µM in experiment [10]; > 100 µM in [5]; 80.4 µM in [6]; 52.3 µM in [7]. Further, the results for the GI50 in experiment [8] and in experiment [9] were > 100 µM and 34.8 µM, respectively. The TGI in [1], in [2], in experiment [10], in [5], in experiment [6] and in [7] was > 100 µM in each case. The TGI in experiment [8] and in experiment [9] was > 100 µM in each case.
